Read-outs that look alike come from different tables or passages of the source.
Key:
[1] = Saturation / degree of unsaturation of the oil phase; assay type: physicochemical; conditions: 0.5 wt % DBA and 10 wt % IPM as solvents in the oil phase
From the text: A degree of unsaturation of 1.5 means that the amount of DBA, or DBA and IPM, present in the oil phase is one and a half times the amount required to dissolve the halobetasol propionate in the oil phase of the composition so that the final oil phase of the composition is saturated with respect to the halobetasol propionate, plus contains a 50% excess of such solvent(s).
An unsaturation value of 1.5 means the oil phase of the final composition contains more of the solvent system of the present invention than the minimum required to make such oil phase saturated, saturation of course being relative to the halobetasol propionate. The 1.5 unsaturation value indicates the oil phase of the final composition contains 11/2 times the amount of solvent system required to produce a final composition the oil phase of which is saturated with respect to halobetasol propionate (in other words, the oil phase of the final composition contains a 50% surplus of the solvent system of the invention).

[2] = literature (Martindale) for dimethyl sulfoxide; cited from earlier work
[3] = prior art skin permeation enhancers; cited from earlier work
[4] = system: utriculi of rhino mouse skin; experiment: Rhino mouse utriculi model (efficacy of tretinoin formulations, reduction of utriculi diameter); assay type: in vivo; conditions: topical, once a day for five days, FIG. 4
Method: Female rhino mice were obtained from the Skin and Cancer Hospital, Temple University, Philadelphia, Pennsylvania. Upon receipt, the rhino mice were treated with an anti-parasitic agent, trichlorfon (COMBOT®), to rid them of pinworms. It was administered in their drinking water for two weeks. An additional two weeks was allowed to pass without COMBOT® treatment before mice were placed on study. Animals were housed in accordance with the National Institute of Health guidelines and had free access to food and water. At the time of the study initiation, the mice were 9-14 weeks old.
The mice were individually housed in a plastic shoe box cage with corn cob bedding and placed in rooms illuminated with yellow lights, cycled for 12 hours on and 12 hours off during the study. […]
The sheets were then evaluated for changes in the sizes of the utriculi as follows: The maximum diameter of 20 representative utriculi per tissue sample were measured, using an IBM PC computer image measurement program (Microscience, Inc., Federal Way, Washington D.C.) and an Olympus microscope (200×magnification). Retinoid effects were evaluated as a percent reduction in uterine diameter by comparing mean diameter of the vehicle treated groups to that of formulation treated groups.

[5] = Source text: Only skin that appeared normal was used.
Halobetasol propionate is commercially available by Bristol-Myers Squibb as ULTRAVATE® Cream and ULTRAVATE® Ointment. ULTRAVATE® Cream is an oil-in-water emulsion containing isopropyl palmitate and isopropyl isostearate as emollients. The ULTRAVATE® Ointment is a nonaqueous emulsion of propylene glycol in a petrolatum base.
In a different human skin study, the in vitro skin penetration of halobetasol propionate from ULTRAVATE® Ointment, FN8-1114-16 cream and FN8-1114-13 cream, was evaluated (see Table 3, Study II). ULTRAVATE® Ointment was used as a control in order to normalize the data, and to assist in the comparison of skin penetration of different formulations when evaluated for skin penetration in different human skin.

[6] = applied topically; more pronounced in occluded condition; cited from earlier work

CCC(=O)O[C@]1(C(=O)CCl)[C@@H](C)C[C@H]2[C@@H]3C[C@H](F)C4=CC(=O)C=C[C@]4(C)[C@@]3(F)[C@@H](O)C[C@@]21C [halobetasol propionate]
saturated solution of halobetasol propionate in the oil phase [1]: 0.05 wt %

CN(C)C=O [Dimethyl formamide, dimethyl formamide]
side effects, in words [2]: cause a sensation of burning and erythema on the skin

C[S+](C)[O-] [dimethyl sulfoxide]
side effects, in words [2]: causes in animals a foul taste and body odor, burning and erythema on the skin, a reduction in the relucency of the lens cortex and tissue necrosis

CCCCCCCCCC[S+](C)[O-] (stereo not drawn) [decyl methyl sulfoxide]
skin permeation of oil-soluble drugs, in words [3]: generally do not increase skin permeation of oil-soluble drugs

CCCCOC(=O)CCCCC(=O)OCCCC [dibutyl adipate]
efficacy of tretinoin formulations (rank order / activity in words) [4]: increases the efficacy and hence the topical bioavailability of tretinoin

CCCCCCCCCCCCCCCC(=O)OC(C)C [isopropyl palmitate]
skin penetration enhancement of halobetasol propionate by solvent/enhancer, in words ([5]; conclusions from Study I and Study II): did not enhance the penetration of halobetasol propionate from ULTRAVATE® Cream as compared to ULTRAVATE® Ointment

CC(O)CO (stereo not drawn) [PG, propylene glycol]
skin penetration enhancement of halobetasol propionate by solvent/enhancer, in words [5]: does not improve the skin penetration of halobetasol propionate any further | irritation/sensitization, in words [6]: can be a sensitizer and irritant when applied topically

CC(C)CCCCCCCCCCCCCCC(=O)OC(C)C [isopropyl isostearate]
skin penetration enhancement of halobetasol propionate by solvent/enhancer, in words [5]: did not enhance the penetration of halobetasol propionate from ULTRAVATE® Cream as compared to ULTRAVATE® Ointment

From patent US5326566A, “Use of dibutyl adipate and isopropyl myristate in topical and transdermal products” (Bristol-Myers Squibb Company, priority 1993, dated 1994)
